The results in this text go back to patent US20200055848A1, “FURANONE DERIVATES AND METHODS OF USE THEREOF” (CARNA BIOSCIENCES, INC., priority 2016, published 2020).

Values joined by “and” are separate entries in the source; they are usually repeats but may differ in a detail not shown here. Identical values can stand only once. Counter-ions that a name gives are not always drawn.

A short description of data set [1]: In vitro metabolic stability, human liver microsomes. The data set is classed as in vitro ADME. To be noted: for HLM % (remaining % of parent compound): 30 min treatment of human liver microsomes. On the procedure:
(§1) NADPH regeneration system (13 mM NADP, 33 mM Glucose-6-phospate, 33 mM MgCl2, and 4 U/mL of Glucose-6-phosphate dehydrogenase) and liver microsomes (1 mg/mL of HLM (BD Gentest, lot 18888) or MLM (BD Gentest, lot 31197)) in 0.1 M phosphate buffer (pH 7.4) were pre-incubated separately at 37° C. for 20 min before mixing with 1:4 ratio. 50 μL of the mixed solution was added to 50 μL of the test compound (2 μM) to initiate the reaction at 37° C. (final conc. 1 μM test compound, 0.4 mg/mL liver microsomes, and 1.3 mM NADPH). After 30 min, the reactions were stopped by adding 300 μL of cold acetonitrile. For 0 min samples, ice-cold acetonitrile (with system suitability standard) was treated before mixing the test compound and microsomes. The sample were vortexed well and then centrifuged at 3500 rpm at 15° C. for 20 min. 110 μL of supernatant was mixed with 110 μL of water and quantitated by LC-MS/MS workstation (Shimazu Corp.).

In data set [2] the target is T1, human Cdc7/human ASK complex protein (Homo sapiens, UniProt O00311).
T1 construct: purchased Carna Biosciences, Inc
The data set can be described thus: Cdc7/ASK enzymatic assay. Conditions: 5 μM ATP versus 10 μM ATP as printed. The class given is biochemical.

The nature of data set [3]: Stability of the ethyl ester to hydrolysis. The data set is classed as physicochemical. On the procedure: Because the ester was expected to form important hydrogen bond with Lys90, an SAR study for the ester group was performed (Table 2). […] Generally esters are labile and can be easily hydrolyzed to the corresponding carboxylic acid. To our surprise, the ethyl ester of 3 was very stable even under strong basic conditions, and it required an extremely strong basic condition (50% w/v KOH aq., reflux) to hydrolyze this ester.
The general procedure for the replacement of R^2 by various groups is shown in Scheme 2. Methyl ester 8 was obtained analogously to ethyl ester 3 from the furanone intermediate 39 which was prepared from methyl 4-chloroacetoacetate 37 and phenyl isocyanate 38 (Scheme 2A). Compound 9 (Scheme 2B) was obtained by hydrolysis of compound 3 under extremely strong basic condition (50% w/v KOH aq., reflux). […] The amide analogs (10-12) were prepared directly by aminolysis of ethyl ester 3 with appropriate amines (Scheme 2C).

A short description of data set [4]: In vitro metabolic stability, mouse liver microsomes. The data set is classed as in vitro ADME. To be noted: for MLM % (remaining % of parent compound): 30 min treatment of mouse liver microsomes. On the procedure: as §1
Data set [5] concerns the target T1, human Cdc7/human ASK complex protein. The data set can be described thus: Cdc7/ASK enzymatic assay. The class given is biochemical. Conditions: 5 μM ATP; for IC50: mean of duplicated assays, read-out: Cdc7 IC50; for Cdc7 inhibitory potency (in words): compared with compound 3. The method, then:
Measurement of Cdc7 kinase activity was carried out using MSA assay kit (QuickScout™ Screening Assist Kit, Carna Biosciences, Inc.). Assay buffer (20 mM HEPES, 0.01% Triton X-100™, 2 mM dithiothreitol, pH 7.5) was used to prepare a substrate mixture solution comprising 4 μM of kinase-reaction substrate (FITC-labeled MCM2 peptide), 40 mM MgCl2, and 4 times concentrations of final targeted ATP (5, 100, and 1,000 μM). The enzyme supplied in the kit (human Cdc7/human ASK complex protein) was diluted into the assay buffer to prepare a 7 nM solution (enzyme solution). The compound stock solution was prepared by diluting a 10 mM DMSO solution into the assay buffer (final 4% DMSO). The kinase reaction was performed by mixing of 5 μL of the compound solution, 5 μL of the substrate mixture solution, and 10 μL of the enzyme solution in a 384-well plate. For the pre-incubation assay, the compound solution and the enzyme solution were pre-mixed and incubated at ambient temperature for 30 min before adding into the substrate mixture solution to start enzymatic reaction. After the reaction at 25° C. for 5 hours, 60 μL of the termination buffer (supplied in the kit) was added to stop the reaction. The phosphorylation of substrate was measured using a LabChip EZ Reader II system (Caliper Life Sciences). The percent inhibition (%) by a tested compound was calculated according to the following formula:
Percent inhibition (%)=(1−(C−A)/(B−A))×100
A represents P/(P+S) for a blank well, B represents P/(P+S) for a solvent well, and C represents P/(P+S) for a compound-added well. S: the peak heights of the separated substrate, P: phosphorylated substrate.
The IC50 value of tested compound was calculated by regression analysis of the percent inhibition values versus the (logarithmic) concentration of the tested compound.

T1 sequence (O00311 whole entry): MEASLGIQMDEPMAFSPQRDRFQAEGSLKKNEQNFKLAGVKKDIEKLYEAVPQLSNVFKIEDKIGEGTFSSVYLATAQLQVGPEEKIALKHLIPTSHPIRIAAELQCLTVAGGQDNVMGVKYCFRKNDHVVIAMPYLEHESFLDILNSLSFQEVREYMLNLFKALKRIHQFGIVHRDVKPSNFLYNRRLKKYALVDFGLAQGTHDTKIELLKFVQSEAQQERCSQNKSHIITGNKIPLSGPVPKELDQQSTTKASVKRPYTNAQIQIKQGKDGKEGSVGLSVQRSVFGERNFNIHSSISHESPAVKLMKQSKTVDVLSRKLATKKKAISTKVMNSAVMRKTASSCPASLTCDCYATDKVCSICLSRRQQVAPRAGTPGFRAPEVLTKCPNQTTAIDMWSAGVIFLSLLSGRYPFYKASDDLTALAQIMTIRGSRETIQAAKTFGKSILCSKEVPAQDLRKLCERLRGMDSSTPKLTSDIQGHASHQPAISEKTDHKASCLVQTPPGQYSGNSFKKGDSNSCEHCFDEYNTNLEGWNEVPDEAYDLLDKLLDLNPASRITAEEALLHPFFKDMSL
T1 sequence (Q9UBU7 whole entry partner): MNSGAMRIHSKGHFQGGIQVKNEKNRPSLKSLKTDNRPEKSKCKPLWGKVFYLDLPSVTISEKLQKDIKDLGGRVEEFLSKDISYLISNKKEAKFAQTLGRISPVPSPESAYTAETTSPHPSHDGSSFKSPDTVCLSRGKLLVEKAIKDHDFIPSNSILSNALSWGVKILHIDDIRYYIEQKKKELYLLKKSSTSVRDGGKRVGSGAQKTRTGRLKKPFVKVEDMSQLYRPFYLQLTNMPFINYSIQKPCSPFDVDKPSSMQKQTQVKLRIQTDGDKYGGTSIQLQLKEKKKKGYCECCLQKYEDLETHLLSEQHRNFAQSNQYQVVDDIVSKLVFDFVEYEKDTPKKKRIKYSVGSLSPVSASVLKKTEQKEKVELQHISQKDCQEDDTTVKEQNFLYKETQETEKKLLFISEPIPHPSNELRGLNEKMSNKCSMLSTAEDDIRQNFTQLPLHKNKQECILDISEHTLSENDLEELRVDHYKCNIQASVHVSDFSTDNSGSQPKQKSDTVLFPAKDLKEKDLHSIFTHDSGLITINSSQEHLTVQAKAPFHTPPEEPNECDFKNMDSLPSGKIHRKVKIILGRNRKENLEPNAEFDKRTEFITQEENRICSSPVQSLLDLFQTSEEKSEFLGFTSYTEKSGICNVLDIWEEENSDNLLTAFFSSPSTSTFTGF

As to `CCOC(=O)C1=C(Nc2ccccc2)OC(=Cc2c[nH]c3ncccc23)C1=O` [Compound 3, Ethyl 5-((1H-pyrrolo[2,3-b]pyridin-3-yl)methylene)-4-oxo-2-(phenylamino)-4,5-dihydrofuran-3-carboxylate], the “HLM % (remaining % of parent compound)” value in data set [1] came out at 23%. The “metabolic stability in human liver microsome (in words)” value in data set [1] (human) is reported as “moderate metabolic stability”. The “fold stronger inhibitory potency at 5 μM ATP than inhibition at 10 μM ATP concentration” value in data set [2] is on record as 21 fold. In addition, the “stability of the ethyl ester” value in data set [3] (conventional ester hydrolysis conditions: 2N HCl aq./EtOH, 60° C. or 2N NaOH aq./EtOH, 60° C.) was “very stable”; in data set [3] (strong basic conditions, hydrolysis required 50% w/v KOH aq., reflux), “very stable”. Also, the “MLM % (remaining % of parent compound)” value in data set [4] turned out to be 7.9%. The “metabolic stability in mice (in words)” value in data set [4] (mouse) is “rapidly metabolized”. The IC50 in data set [5] was 3.3 nM and 3.8 nM.
As for `CCOC(=O)C1=C(Nc2ccc(OC)cc2)OC(=Cc2c[nH]c3ncccc23)C1=O` [Compound 18, Ethyl 5-((1H-pyrrolo[2,3-b]pyridin-3-yl)methylene)-2-((4-methoxyphenyl)amino)-4-oxo-4,5-dihydrofuran-3-carboxylate], the “HLM % (remaining % of parent compound)” value in data set [1] is reported as 33%. Further, the “MLM % (remaining % of parent compound)” value in data set [4] was found to be 5.1%. The IC50 in data set [5] is 4.9 nM.
The like results for `CCOC(=O)C1=C(Nc2ccccc2F)OC(=Cc2c[nH]c3ncccc23)C1=O` [Compound 19, Ethyl 5-[(1H-pyrrolo[2,3-b]pyridin-3-yl)methylene]-2-[(2-fluorophenyl)amino]-4-oxo-4,5-dihydrofuran-3-carboxylate] were, in that order, 30%, 10% and 2.4 nM.
The like results for `CCOC(=O)C1=C(Nc2ccc(F)cc2)OC(=Cc2c[nH]c3ncccc23)C1=O` [Compound 20, Ethyl 5-((1H-pyrrolo[2,3-b]pyridin-3-yl)methylene)-2-((4-fluorophenyl)amino)-4-oxo-4,5-dihydrofuran-3-carboxylate] were, in that order, 52%, 25% and 4.3 nM.
In the case of `CCOC(=O)C1=C(Nc2ccccc2C)OC(=Cc2c[nH]c3ncccc23)C1=O` [Compound 21, Ethyl 5-((1H-pyrrolo[2,3-b]pyridin-3-yl)methylene)-4-oxo-2-(o-tolylamino)-4,5-dihydrofuran-3-carboxylate], in data set [1], the “HLM % (remaining % of parent compound)” value turned out to be 53%. The “MLM % (remaining % of parent compound)” value in data set [4] turned out to be 24%. Further, the IC50 in data set [5] is 3.8 nM.
Turning to `CCOC(=O)C1=C(Nc2ccc(F)cc2F)OC(=Cc2c[nH]c3ncccc23)C1=O` [Compound 23, Ethyl 5-((1H-pyrrolo[2,3-b]pyridin-3-yl)methylene)-2-((2,4-difluorophenyl)amino)-4-oxo-4,5-dihydrofuran-3-carboxylate], the “HLM % (remaining % of parent compound)” value in data set [1] is 57%. For the same compound, in data set [4], the “MLM % (remaining % of parent compound)” value is listed as 12%. Besides, in data set [5], the IC50 is 2.5 nM.
The like results for `CCOC(=O)C1=C(Nc2ccc(C)cc2C)OC(=Cc2c[nH]c3ncccc23)C1=O` [Compound 24, Ethyl 5-((1H-pyrrolo[2,3-b]pyridin-3-yl)methylene)-2-((2,4-dimethylphenyl)amino)-4-oxo-4,5-dihydrofuran-3-carboxylate] were, in that order, 63%, 30% and 3.9 nM.
Turning to `CCOC(=O)C1=C(Nc2cccnc2)OC(=Cc2c[nH]c3ncccc23)C1=O` [Compound 26, Ethyl 5-((1H-pyrrolo[2,3-b]pyridin-3-yl)methylene)-4-oxo-2-(pyridin-3-ylamino)-4,5-dihydrofuran-3-carboxylate], the IC50 in data set [5] came to 8 nM.
Same read-out and setting: to `CCOC(=O)C1=C(Nc2ccncc2)OC(=Cc2c[nH]c3ncccc23)C1=O` [Compound 27, Ethyl 5-((1H-pyrrolo[2,3-b]pyridin-3-yl)methylene)-4-oxo-2-(pyridin-4-ylamino)-4,5-dihydrofuran-3-carboxylate] belongs 3.5 nM; to `CCOC(=O)C1=C(Nc2cncnc2)O/C(=C\c2c[nH]c3ncccc23)C1=O` [Compound 28, Ethyl 5-((1H-pyrrolo[2,3-b]pyridin-3-yl)methylene)-4-oxo-2-(pyrimidin-5-ylamino)-4,5-dihydrofuran-3-carboxylate], 18 nM.
In the case of `CCOC(=O)C1=C(Nc2cc[nH]n2)O/C(=C\c2c[nH]c3ncccc23)C1=O` [Compound 29, Ethyl 2-((1H-pyrazol-3-yl)amino)-5-((1H-pyrrolo[2,3-b]pyridin-3-yl)methylene)-4-oxo-4,5-dihydrofuran-3-carboxylate], the IC50 in data set [5] amounted to 10 nM.
With `CCOC(=O)C1=C(Nc2ccc3ncccc3c2)O/C(=C\c2c[nH]c3ncccc23)C1=O` [Compound 30, Ethyl 5-((1H-pyrrolo[2,3-b]pyridin-3-yl)methylene)-4-oxo-2-(quinolin-6-ylamino)-4,5-dihydrofuran-3-carboxylate], in data set [5], the IC50 is 36 nM.
The same measure, in the same setting: for `CCOC(=O)C1=C(Nc2ccc3cn[nH]c3c2)OC(=Cc2c[nH]c3ncccc23)C1=O` [Compound 31, Ethyl 2-((1H-indazol-6-yl)amino)-5-((1H-pyrrolo[2,3-b]pyridin-3-yl)methylene)-4-oxo-4,5-dihydrofuran-3-carboxylate] the value was 4 nM.
On to `CCOC(=O)C1=C(NCc2ccccc2)O/C(=C\c2c[nH]c3ncccc23)C1=O` [Compound 32, Ethyl 5-((1H-pyrrolo[2,3-b]pyridin-3-yl)methylene)-2-(benzylamino)-4-oxo-4,5-dihydrofuran-3-carboxylate hydrochloride], for which, in data set [5], the “Cdc7 inhibitory potency (in words)” value was “some decrease in potency” and the half-inhibitory concentration (IC50) was 23 nM.
Consider `CCOC(=O)C1=C(NCCc2ccccc2)O/C(=C\c2c[nH]c3ncccc23)C1=O` [Compound 33, Ethyl 5-((1H-pyrrolo[2,3-b]pyridin-3-yl)methylene)-4-oxo-2-(phenethylamino)-4,5-dihydrofuran-3-carboxylate hydrochloride], for which, in data set [5], the “Cdc7 inhibitory potency (in words)” value was “some decrease in potency” and the IC50 was 30 nM.
